Measurements taken from patent US4542137A, “Alkylaminodesoxy-1.4;3.6-dianhydrohexitol nitrates substituted by purine bases and pharmaceutical compositions” (priority 1980, dated 1985).
Read-outs that look alike come from different tables or passages of the source.

Columns and labels:
mongrel cats [1] = test: inotropic and frequency-lowering heart circulation effectiveness on mongrel cats, intravenous; type: in vivo; set-up: heart frequency previously / dp/dt previously / dp/dt afterwards: unit not given beside the values; conditions: cat; for blood pressure afterwards / dp/dt afterwards / heart frequency afterwards: after; for blood pressure previously / dp/dt previously / heart frequency previously: before; for blood pressure Δ / dp/dt Δ / heart frequency Δ: change
Protocol: (§1) The animals were narcotised with a mixture of chloralose-urethane (1.2 g./kg. urethane+40 mg./kg. chloralose administered i.p.). They breathed spontaneously through a tracheal canula. The A. carotis sinistra was used in order to place a catheter tip manometer into the left heart chamber. The V. jugularis served for injection purposes. Via the A. femoralis dextra, a catheter was pushed in up to the Aorta descendans and attached to a pressure recorder (Statham P 23 Db). The heart frequency was recorded with a pulse frequency measurer (Firm Hugo Sachs Elektronik) from the left ventricular pressure signal.

mongrel cats [2] = test: inotropic and frequency-lowering heart circulation effectiveness on mongrel cats, intraduodenal; type: in vivo; conditions: cat, 5 mg/kg intraduodenal
Protocol: as §1, with “A. femoralis,” for “A. femoralis dextra,”, “pushed” for “pushed in”, “up into” for “up to”, “measurer (firm” for “measurer (Firm”, “signal. A duodenal loop was exposed by a laparotomy. The substances to be tested were injected directly into the lumen.” for “signal.”

guinea pigs = test: blood pressure-lowering effectiveness on narcotised guinea pigs, i.v.; conditions: for blood pressure afterwards: after; for blood pressure previously: before; for blood pressure Δ: change
[3] = acute toxicity in mice according to the method of Lichtfield and Wilcoxon; conditions: mouse, in vivo
Protocol: As to example 1d, the following values for acute toxicity were determined with a greater number of mice, according to the method of Lichtfield and Wilcoxon: […]

Cn1c(=O)c2c(ncn2CCCN[C@H]2CO[C@H]3[C@@H]2OC[C@@H]3O[N+](=O)[O-])n(C)c1=O [Example 1d, 5-(3-Theophyllin-7-ylpropyl)-amino-5-desoxy-1.4;3.6-dianhydro-L-iditol 2-nitrate]
blood pressure WD (mongrel cats [1]; 0.25 mg/kg i.v.): 27.71 min
dp/dt WD (mongrel cats [1]; 0.25 mg/kg i.v.): 15.57 min
blood pressure afterwards (mongrel cats [1]; 0.25 mg/kg i.v.): 64.86
dp/dt afterwards (mongrel cats [1]; 0.25 mg/kg i.v.): 6086
heart frequency afterwards (mongrel cats [1]; 0.25 mg/kg i.v.): 184.57
blood pressure previously (mongrel cats [1]; 0.25 mg/kg i.v.): 103.00
dp/dt previously (mongrel cats [1]; 0.25 mg/kg i.v.): 7371
heart frequency previously (mongrel cats [1]; 0.25 mg/kg i.v.): 180.86
blood pressure Δ (mongrel cats [1]; 0.25 mg/kg i.v.): -38.14
dp/dt Δ (mongrel cats [1]; 0.25 mg/kg i.v.): -1285
heart frequency Δ (mongrel cats [1]; 0.25 mg/kg i.v.): +3.71
blood pressure WD (mongrel cats [1]; 0.50 mg/kg i.v.): 20.21 min
dp/dt WD (mongrel cats [1]; 0.50 mg/kg i.v.): 24.57 min
blood pressure afterwards (mongrel cats [1]; 0.50 mg/kg i.v.): 61.57
dp/dt afterwards (mongrel cats [1]; 0.50 mg/kg i.v.): 5300
heart frequency afterwards (mongrel cats [1]; 0.50 mg/kg i.v.): 182.29
blood pressure previously (mongrel cats [1]; 0.50 mg/kg i.v.): 101.86
dp/dt previously (mongrel cats [1]; 0.50 mg/kg i.v.): 6614
heart frequency previously (mongrel cats [1]; 0.50 mg/kg i.v.): 178.29
blood pressure Δ (mongrel cats [1]; 0.50 mg/kg i.v.): -40.29
dp/dt Δ (mongrel cats [1]; 0.50 mg/kg i.v.): -1314
heart frequency Δ (mongrel cats [1]; 0.50 mg/kg i.v.): +4.00
blood pressure WD (mongrel cats [1]; 1.00 mg/kg i.v.): 24.29 min
dp/dt WD (mongrel cats [1]; 1.00 mg/kg i.v.): 19.58 min
blood pressure afterwards (mongrel cats [1]; 1.00 mg/kg i.v.): 59.86
dp/dt afterwards (mongrel cats [1]; 1.00 mg/kg i.v.): 5186
heart frequency afterwards (mongrel cats [1]; 1.00 mg/kg i.v.): 182.00
blood pressure previously (mongrel cats [1]; 1.00 mg/kg i.v.): 103.43
dp/dt previously (mongrel cats [1]; 1.00 mg/kg i.v.): 5957
heart frequency previously (mongrel cats [1]; 1.00 mg/kg i.v.): 174.00
blood pressure Δ (mongrel cats [1]; 1.00 mg/kg i.v.): -43.57
dp/dt Δ (mongrel cats [1]; 1.00 mg/kg i.v.): -771
heart frequency Δ (mongrel cats [1]; 1.00 mg/kg i.v.): +8.00
blood pressure WD (mongrel cats [1]; 2.50 mg/kg i.v.): > 10 min
dp/dt WD (mongrel cats [1]; 2.50 mg/kg i.v.): 6.42 min
blood pressure afterwards (mongrel cats [1]; 2.50 mg/kg i.v.): 63.88
dp/dt afterwards (mongrel cats [1]; 2.50 mg/kg i.v.): 6550
heart frequency afterwards (mongrel cats [1]; 2.50 mg/kg i.v.): 180.33
blood pressure previously (mongrel cats [1]; 2.50 mg/kg i.v.): 107.50
dp/dt previously (mongrel cats [1]; 2.50 mg/kg i.v.): 6383
heart frequency previously (mongrel cats [1]; 2.50 mg/kg i.v.): 169.67
blood pressure Δ (mongrel cats [1]; 2.50 mg/kg i.v.): -43.62
dp/dt Δ (mongrel cats [1]; 2.50 mg/kg i.v.): +167
heart frequency Δ (mongrel cats [1]; 2.50 mg/kg i.v.): +10.66
blood pressure (mongrel cats [2]; 0 min): 115.4 ± 14.4 mm. Hg
dp/dt (mongrel cats [2]; 0 min): 6000 ± 1367 mm sec.
frequency (mongrel cats [2]; 0 min): 173.2 ± 14.5 min⁻¹
blood pressure (mongrel cats [2]; 10 min): 86.0 ± 13.8 mm. Hg
dp/dt (mongrel cats [2]; 10 min): 4880 ± 1371 mm sec.
frequency (mongrel cats [2]; 10 min): 173.6 ± 14.8 min⁻¹
blood pressure Δ (mongrel cats [2]; 10 min vs 0): -29.4 mm. Hg
dp/dt Δ (mongrel cats [2]; 10 min vs 0): -1120 mm sec.
blood pressure (mongrel cats [2]; 30 min): 88.6 ± 14.8 mm. Hg
dp/dt (mongrel cats [2]; 30 min): 4500 ± 1312 mm sec.
frequency (mongrel cats [2]; 30 min): 166.0 ± 15.6 min⁻¹
blood pressure Δ (mongrel cats [2]; 30 min vs 0): -26.8 mm. Hg
dp/dt Δ (mongrel cats [2]; 30 min vs 0): -1440 mm sec.
blood pressure (mongrel cats [2]; 60 min): 95.0 ± 14.4 mm. Hg
dp/dt (mongrel cats [2]; 60 min): 5020 ± 1330 mm sec.
frequency (mongrel cats [2]; 60 min): 168.4 ± 14.0 min⁻¹
blood pressure Δ (mongrel cats [2]; 60 min vs 0): -20.4 mm. Hg
dp/dt Δ (mongrel cats [2]; 60 min vs 0): -980 mm sec.
blood pressure (mongrel cats [2]; 120 min): 99.4 ± 13.2 mm. Hg
dp/dt (mongrel cats [2]; 120 min): 5100 ± 1341 mm sec.
frequency (mongrel cats [2]; 120 min): 164.8 ± 13.2 min⁻¹
blood pressure Δ (mongrel cats [2]; 120 min vs 0): -16.0 mm. Hg
dp/dt Δ (mongrel cats [2]; 120 min vs 0): -900 mm sec.
blood pressure afterwards (guinea pigs; 0.25 mg/kg i.v.): 49.75 ± 2.78 mm. Hg
blood pressure previously (guinea pigs; 0.25 mg/kg i.v.): 67.75 ± 3.27 mm. Hg
blood pressure Δ (guinea pigs; 0.25 mg/kg i.v.): -18.00 mm. Hg
blood pressure afterwards (guinea pigs; 1.00 mg/kg i.v.): 40.00 ± 2.12 mm. Hg
blood pressure previously (guinea pigs; 1.00 mg/kg i.v.): 68.00 ± 3.85 mm. Hg
blood pressure Δ (guinea pigs; 1.00 mg/kg i.v.): -28.00 mm. Hg
blood pressure afterwards (guinea pigs; 2.50 mg/kg i.v.): 37.50 ± 1.76 mm. Hg
blood pressure previously (guinea pigs; 2.50 mg/kg i.v.): 66.25 ± 2.66 mm. Hg
blood pressure Δ (guinea pigs; 2.50 mg/kg i.v.): -28.75 mm. Hg
blood pressure-lowering effectiveness compared with ISMN or ISDN (guinea pigs; i.v., narcotised guinea pigs): more effective than ISMN or ISDN
LD50 ([3]; ip, printed range (678.6-851.2), read-out: LD50 i.p.): 760 mg/kg
LD50 ([3]; iv, printed range (190.4-251.9), read-out: LD50 i.v.): 219 mg/kg
LD50 ([3]; po, read-out: LD50 p.o.): 1600 mg/kg
